Reference: PMC4503722, “Novel Phenotypic Outcomes Identified for a Public Collection of Approved Drugs from a Publicly Accessible Panel of Assays” (PLoS ONE, 2015)
Where a name gives a salt, the structure may show the parent alone. Read-outs that look alike come from different tables or passages of the source.

How the values were obtained:
HeLa cells = experiment: cells; assay type: cell-based; conditions: read-out: CellCycle G2/M
[1] = test system: HCT116 cells treated with a GSK3β inhibitor; experiment: cells; assay type: cell-based
DLD-1 = experiment: cells; assay type: cell-based
hJAK2 = molecular target: T1, hJAK2 (Homo sapiens, UniProt O60674); experiment: Cerep LANCE kinase assay hJAK2 (S1 assay 33); assay type: biochemical; conditions: read-out: JAK2
T1 construct: purchased Cerep (LANCE kinase assay platform, contract assay)
T1 sequence (O60674 whole entry): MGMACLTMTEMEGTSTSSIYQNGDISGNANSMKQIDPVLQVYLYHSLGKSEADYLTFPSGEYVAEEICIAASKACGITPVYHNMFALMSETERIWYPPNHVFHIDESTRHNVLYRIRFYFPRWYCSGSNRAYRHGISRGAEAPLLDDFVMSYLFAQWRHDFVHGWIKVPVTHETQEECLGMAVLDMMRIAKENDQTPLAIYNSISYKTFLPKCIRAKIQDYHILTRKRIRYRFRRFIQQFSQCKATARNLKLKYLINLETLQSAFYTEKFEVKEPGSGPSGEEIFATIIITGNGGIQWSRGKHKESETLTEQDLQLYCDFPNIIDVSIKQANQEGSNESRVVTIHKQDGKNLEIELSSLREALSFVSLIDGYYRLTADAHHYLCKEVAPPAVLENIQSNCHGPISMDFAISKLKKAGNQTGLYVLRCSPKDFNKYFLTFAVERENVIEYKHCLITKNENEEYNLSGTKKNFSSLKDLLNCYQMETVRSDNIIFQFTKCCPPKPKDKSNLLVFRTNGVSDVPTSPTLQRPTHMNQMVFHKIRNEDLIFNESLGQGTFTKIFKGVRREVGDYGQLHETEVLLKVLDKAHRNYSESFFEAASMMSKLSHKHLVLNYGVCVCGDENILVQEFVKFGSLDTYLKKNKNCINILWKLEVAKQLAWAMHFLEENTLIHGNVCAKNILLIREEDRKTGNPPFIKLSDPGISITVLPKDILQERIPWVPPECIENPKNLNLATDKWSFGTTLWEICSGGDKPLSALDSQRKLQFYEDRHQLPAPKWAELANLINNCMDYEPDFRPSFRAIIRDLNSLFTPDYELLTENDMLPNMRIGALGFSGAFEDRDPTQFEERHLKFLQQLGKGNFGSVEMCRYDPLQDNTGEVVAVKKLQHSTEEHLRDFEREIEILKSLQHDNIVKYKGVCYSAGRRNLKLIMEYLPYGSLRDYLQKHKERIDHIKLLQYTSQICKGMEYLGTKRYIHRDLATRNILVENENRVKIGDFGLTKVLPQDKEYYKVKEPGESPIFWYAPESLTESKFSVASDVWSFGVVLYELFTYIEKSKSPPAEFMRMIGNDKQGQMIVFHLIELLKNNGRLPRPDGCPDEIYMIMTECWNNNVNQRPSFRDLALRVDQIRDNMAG

hGSK3b = molecular target: T2, hGSK3b (Homo sapiens, UniProt P49841); experiment: Cerep LANCE kinase assay hGSK3b (S1 assay 34); assay type: biochemical; conditions: read-out: GSK3b
T2 construct: purchased Cerep (LANCE kinase assay platform, contract assay)
T2 sequence (P49841 whole entry): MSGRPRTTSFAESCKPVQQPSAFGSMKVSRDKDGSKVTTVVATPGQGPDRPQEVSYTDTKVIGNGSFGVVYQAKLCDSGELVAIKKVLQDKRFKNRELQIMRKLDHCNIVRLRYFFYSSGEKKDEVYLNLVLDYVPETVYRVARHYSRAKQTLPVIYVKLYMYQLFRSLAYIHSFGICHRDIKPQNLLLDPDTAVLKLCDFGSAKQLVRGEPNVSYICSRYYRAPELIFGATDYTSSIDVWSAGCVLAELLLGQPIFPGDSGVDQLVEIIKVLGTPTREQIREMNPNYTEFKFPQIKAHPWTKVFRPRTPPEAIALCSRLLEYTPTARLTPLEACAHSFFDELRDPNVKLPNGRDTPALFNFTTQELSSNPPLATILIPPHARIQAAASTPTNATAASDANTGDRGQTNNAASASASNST

INS-1E cells = experiment: cells; assay type: cell-based, rat
hFLT3 = molecular target: T3, hFLT3 (Homo sapiens, UniProt P36888); experiment: Cerep LANCE kinase assay hFLT3 (S1 assay 35); assay type: biochemical; conditions: read-out: FLT3
T3 construct: purchased Cerep (LANCE kinase assay platform, contract assay)
T3 sequence (P36888 27-993): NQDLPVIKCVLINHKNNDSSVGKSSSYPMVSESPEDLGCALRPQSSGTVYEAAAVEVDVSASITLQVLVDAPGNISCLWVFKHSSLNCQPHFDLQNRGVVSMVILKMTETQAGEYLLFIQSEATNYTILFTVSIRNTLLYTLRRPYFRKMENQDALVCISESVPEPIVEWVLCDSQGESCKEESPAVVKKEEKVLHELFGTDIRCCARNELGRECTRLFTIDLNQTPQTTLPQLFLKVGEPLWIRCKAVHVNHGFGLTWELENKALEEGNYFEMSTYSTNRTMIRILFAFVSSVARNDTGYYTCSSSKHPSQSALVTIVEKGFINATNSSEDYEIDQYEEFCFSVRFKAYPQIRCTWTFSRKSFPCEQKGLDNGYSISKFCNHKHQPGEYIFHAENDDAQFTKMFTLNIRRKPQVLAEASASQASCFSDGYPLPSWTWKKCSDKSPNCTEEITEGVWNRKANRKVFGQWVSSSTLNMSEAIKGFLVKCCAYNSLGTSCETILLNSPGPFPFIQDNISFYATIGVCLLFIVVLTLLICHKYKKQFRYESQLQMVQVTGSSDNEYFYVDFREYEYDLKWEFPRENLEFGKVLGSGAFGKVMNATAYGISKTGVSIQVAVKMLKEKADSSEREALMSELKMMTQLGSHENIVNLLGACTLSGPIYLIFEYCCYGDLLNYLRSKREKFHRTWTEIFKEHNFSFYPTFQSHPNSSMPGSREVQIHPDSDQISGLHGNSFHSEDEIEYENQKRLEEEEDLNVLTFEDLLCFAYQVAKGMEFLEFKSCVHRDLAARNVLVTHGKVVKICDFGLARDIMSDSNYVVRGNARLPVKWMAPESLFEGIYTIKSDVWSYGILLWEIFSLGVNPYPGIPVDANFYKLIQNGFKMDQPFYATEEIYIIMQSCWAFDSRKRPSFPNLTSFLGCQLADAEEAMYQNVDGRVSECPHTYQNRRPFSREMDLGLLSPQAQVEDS

[2] = test system: nuclear β-catenin in C2C12 cells; experiment: cells; assay type: cell-based
HCT116 = experiment: cells; assay type: cell-based
[3] = test system: endothelial tube formation in co-cultures of ECFCs and ADSCs treated with VEGF; experiment: cells; assay type: cell-based, human
hKDR = molecular target: T4, hKDR (Homo sapiens, UniProt P35968); experiment: Cerep LANCE kinase assay hKDR (S1 assay 32); assay type: biochemical; conditions: read-out: KDR
T4 construct: purchased Cerep (LANCE kinase assay platform, contract assay)
T4 sequence (P35968 20-1356): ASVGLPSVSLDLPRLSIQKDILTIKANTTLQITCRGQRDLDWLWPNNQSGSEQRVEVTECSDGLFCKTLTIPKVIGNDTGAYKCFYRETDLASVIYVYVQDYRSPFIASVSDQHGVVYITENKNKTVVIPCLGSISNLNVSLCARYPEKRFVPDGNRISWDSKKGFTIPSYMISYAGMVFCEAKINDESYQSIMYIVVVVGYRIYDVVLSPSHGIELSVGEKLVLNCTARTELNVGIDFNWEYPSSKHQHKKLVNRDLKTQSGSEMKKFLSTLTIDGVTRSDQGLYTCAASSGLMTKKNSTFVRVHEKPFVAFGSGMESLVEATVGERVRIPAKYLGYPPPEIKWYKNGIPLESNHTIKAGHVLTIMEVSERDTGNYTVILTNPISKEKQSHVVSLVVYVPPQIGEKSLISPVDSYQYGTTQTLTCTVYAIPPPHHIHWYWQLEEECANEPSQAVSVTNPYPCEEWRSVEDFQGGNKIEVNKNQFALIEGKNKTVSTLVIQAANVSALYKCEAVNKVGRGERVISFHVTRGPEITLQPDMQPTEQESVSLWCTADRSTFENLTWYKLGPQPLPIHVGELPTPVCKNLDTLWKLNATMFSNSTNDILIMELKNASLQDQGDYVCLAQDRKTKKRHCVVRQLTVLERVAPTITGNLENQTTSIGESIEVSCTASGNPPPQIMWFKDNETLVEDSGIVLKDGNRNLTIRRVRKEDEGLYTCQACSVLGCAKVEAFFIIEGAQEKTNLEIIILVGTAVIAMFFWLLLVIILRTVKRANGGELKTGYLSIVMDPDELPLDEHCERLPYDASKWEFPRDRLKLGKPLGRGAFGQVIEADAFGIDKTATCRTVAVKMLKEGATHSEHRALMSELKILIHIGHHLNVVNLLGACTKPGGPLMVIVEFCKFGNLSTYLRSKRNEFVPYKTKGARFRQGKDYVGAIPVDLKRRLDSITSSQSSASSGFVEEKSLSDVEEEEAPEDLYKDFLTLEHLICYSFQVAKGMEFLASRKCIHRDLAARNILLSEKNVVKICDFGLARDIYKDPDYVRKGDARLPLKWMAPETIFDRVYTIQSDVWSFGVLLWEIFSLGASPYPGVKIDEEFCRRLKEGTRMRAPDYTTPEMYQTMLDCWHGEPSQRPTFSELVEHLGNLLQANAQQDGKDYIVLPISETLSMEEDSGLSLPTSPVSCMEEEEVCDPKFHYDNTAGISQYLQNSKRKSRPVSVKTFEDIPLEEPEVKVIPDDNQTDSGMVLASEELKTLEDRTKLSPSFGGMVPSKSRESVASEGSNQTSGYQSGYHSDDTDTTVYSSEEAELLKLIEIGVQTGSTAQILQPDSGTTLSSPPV

NCI-H716 cells = experiment: cells; assay type: cell-based, Human
SW480 = experiment: cells; assay type: cell-based
hp70S6K1 (RPS6KB1) = molecular target: T5, hp70S6K1 (RPS6KB1) (Homo sapiens, UniProt P23443); experiment: Cerep LANCE kinase assay hp70S6K1 (S1 assay 31); assay type: biochemical; conditions: read-out: p70S6K1
T5 construct: purchased Cerep (LANCE kinase assay platform, contract assay)
T5 sequence (P23443 whole entry): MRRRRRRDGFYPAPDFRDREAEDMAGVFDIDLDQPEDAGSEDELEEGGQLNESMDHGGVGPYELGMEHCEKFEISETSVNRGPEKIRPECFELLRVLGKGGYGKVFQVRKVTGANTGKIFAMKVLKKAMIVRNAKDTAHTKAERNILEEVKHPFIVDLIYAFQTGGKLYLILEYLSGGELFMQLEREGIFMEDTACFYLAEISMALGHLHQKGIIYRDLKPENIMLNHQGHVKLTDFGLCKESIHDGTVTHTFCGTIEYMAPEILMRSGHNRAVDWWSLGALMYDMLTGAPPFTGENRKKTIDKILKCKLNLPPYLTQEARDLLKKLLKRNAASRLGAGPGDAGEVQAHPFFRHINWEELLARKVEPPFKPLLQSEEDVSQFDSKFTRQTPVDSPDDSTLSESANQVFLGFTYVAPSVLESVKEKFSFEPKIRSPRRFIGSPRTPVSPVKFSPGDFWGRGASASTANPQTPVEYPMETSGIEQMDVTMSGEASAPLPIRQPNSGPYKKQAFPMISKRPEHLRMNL

[4] = GSK3b inhibitor pretreated, read-out: GSK3b inh pretreated_Viability ATP HCT116
[5] = basal, read-out: Basal_Viability ATP DLD-1
[6] = IC50 / EC50; INS-1E; read-out: Insulin Secretion
[7] = IC50 / EC50; C2C12 beta-catenin translocation; read-out: Wnt Pathway
[8] = basal, read-out: Basal_Viability ATP HCT116
[9] = IC50 / EC50; endothelial tube area, ADSC/ECFC co-culture; read-out: Anti-Angiogenesis
[10] = IC50 / EC50; NCI-H716; read-out: GLP 1 Secretion
[11] = basal, read-out: Basal_Viability ATP SW480
[12] = S2 Table, HeLa, 20 = no response at highest concentration
[13] = HCT116 pretreated with GSK3b inhibitor, read-out: GSK3b inh pretreated_Viability ATP HCT116
[14] = basal, DLD-1, read-out: Basal_Viability ATP DLD-1
[15] = S2 Table; module primary assay; 20 / 20.1 codes per legend; read-out: Insulin Secretion
[16] = basal, HCT116, read-out: Basal_Viability ATP HCT116
[17] = S2 Table; module primary assay; 20 / 20.1 codes per legend; read-out: GLP 1 Secretion
[18] = basal, SW480, read-out: Basal_Viability ATP SW480
[19] = Homo sapiens, HCT-116, read-out: GSK3b inh pretreated_Viability ATP HCT116
[20] = Homo sapiens, DLD-1, read-out: Basal_Viability ATP DLD-1
[21] = Rattus norvegicus, INS-1E, read-out: Insulin Secretion
[22] = Mus musculus, C2C12, read-out: Wnt Pathway
[23] = Homo sapiens, HCT-116, read-out: Basal_Viability ATP HCT116
[24] = Homo sapiens, read-out: Anti-Angiogenesis
[25] = Homo sapiens, NCI-H716, read-out: GLP 1 Secretion
[26] = Homo sapiens, SW480, read-out: Basal_Viability ATP SW480

Compound | EC50 (HeLa cells; IC50 / EC50, HeLa) [µM] | IC50 [1, 4] [µM] | IC50 (DLD-1; [5]) [µM] | IC50 (hJAK2) [µM] | IC50 (hGSK3b) [µM] | EC50 (INS-1E cells; [6]) [µM] | IC50 (hFLT3) [µM] | EC50 [2, 7] [µM] | IC50 (HCT116; [8]) [µM] | IC50 [3, 9] [µM] | IC50 (hKDR) [µM] | EC50 (NCI-H716 cells; [10]) [µM] | IC50 (SW480; [11]) [µM] | IC50 (hp70S6K1 (RPS6KB1)) [µM] | IC50 (hJAK2; kinase assay) [µM] | IC50 (hGSK3b; kinase assay) [µM] | IC50 (hFLT3; kinase assay) [µM] | EC50 ([2]; read-out: Wnt Pathway) [µM] | IC50 (hKDR; kinase assay) [µM] | IC50 (hp70S6K1 (RPS6KB1); kinase assay) [µM] | also measured
C[C@@H]1C[C@@H]([C@H](O)CC2CC(=O)NC(=O)C2)C(=O)[C@@H](C)C1 | > 10 | 1.02 | 3.57 | > 20 | > 20 | > 10 | > 20 | > 10 | 2.02 | 1.15 | > 20 | > 10 | 3.04 | > 20 |  |  |  |  |  |  | 
COC(=O)c1nc(Cl)c(Cl)nc1N |  |  |  |  |  |  |  |  |  |  |  |  |  |  | > 20 | > 20 | 2.86 | 0.157 | > 20 | > 20 | EC50 (HeLa cells; [12]): 0.511 µM; IC50 [1, 13]: 0.296 µM; IC50 (DLD-1; [14]): 0.835 µM; EC50 (INS-1E cells; [15]): > 10 µM; IC50 (HCT116; [16]): 0.327 µM; IC50 ([3]; read-out: Anti-Angiogenesis): 0.865 µM; EC50 (NCI-H716 cells; [17]): > 10 µM; IC50 (SW480; [18]): 0.88 µM
Cc1cc(O)c2ccccc2c1O [2-Methyl-1,4-naphthalenediol] | > 10 | 9.45 | 10 | > 20 | 19.1 | > 10 | > 20 | 1.75 | 1.49 | 4.89 | 18.4 | > 10 | 7.08 | > 20 |  |  |  |  |  |  | 
C[n+]1c2cc(N)ccc2cc2ccc(N)cc21 [Acriflavinium chloride] |  |  |  |  |  |  |  |  |  |  |  |  |  |  | > 20 | > 20 | > 20 | 1.6 | > 20 | 6.57 | EC50 (HeLa cells; [12]): > 10 µM; IC50 [1, 13]: 4.36 µM; IC50 (DLD-1; [14]): 4.03 µM; EC50 (INS-1E cells; [15]): > 10 µM; IC50 (HCT116; [16]): 10.3 µM; IC50 ([3]; S2 Table; module primary assay; 20 = no response at highest concentration, 20.1 = inactive in single concentration testing; read-out: Anti-Angiogenesis): > 10 µM; EC50 (NCI-H716 cells; [17]): > 10 µM; IC50 (SW480; [18]): 1.26 µM
Nc1ncnc2c1ncn2CCOCP(=O)(O)O [Adefovir] |  |  |  | > 20 | > 20 |  | > 20 |  |  |  | > 20 |  |  | > 20 |  |  |  |  |  |  | EC50 (HeLa cells; Homo sapiens, HeLa): > 10 µM; IC50 [1, 19]: 0.584 µM; IC50 (DLD-1; [20]): 2.68 µM; EC50 (INS-1E cells; [21]): > 10 µM; EC50 [2, 22]: 0.387 µM; IC50 (HCT116; [23]): 9.01 µM; IC50 [3, 24]: 0.391 µM; EC50 (NCI-H716 cells; [25]): > 10 µM; IC50 (SW480; [26]): 2.77 µM
C[C@@]12C(=O)OC(=O)[C@]1(C)[C@H]1CC[C@@H]2O1 [Cantharidine] |  |  |  |  |  |  |  |  |  |  |  |  |  |  | > 20 | > 20 | > 20 |  | > 20 | > 20 | EC50 (HeLa cells; Homo sapiens, S2 Table, HeLa, 20 = no response at highest concentration): > 10 µM; IC50 ([1]; Homo sapiens, HCT-116, HCT116 pretreated with GSK3b inhibitor, read-out: GSK3b inh pretreated_Viability ATP HCT116): 3.03 µM; IC50 (DLD-1; Homo sapiens, basal, DLD-1, read-out: Basal_Viability ATP DLD-1): 1.12 µM; EC50 (INS-1E cells; Rattus norvegicus, INS-1E; read-out: Insulin Secretion): > 10 µM; EC50 ([2]; Mus musculus, C2C12; read-out: Wnt Pathway): 1.49 µM; IC50 (HCT116; Homo sapiens, HCT-116, basal, HCT116, read-out: Basal_Viability ATP HCT116): 7.71 µM; IC50 ([3]; Homo sapiens; read-out: Anti-Angiogenesis): 1.23 µM; EC50 (NCI-H716 cells; Homo sapiens, NCI-H716; read-out: GLP 1 Secretion): 6.68 µM; IC50 (SW480; Homo sapiens, basal, SW480, read-out: Basal_Viability ATP SW480): 1.86 µM
CCCCCCNC(=O)n1cc(F)c(=O)[nH]c1=O [Carmofur] |  |  |  | > 20 | > 20 |  | > 20 |  |  |  | > 20 |  |  | > 20 |  |  |  |  |  |  | EC50 (HeLa cells; Homo sapiens, HeLa, IC50 / EC50, HeLa): > 10 µM; IC50 ([1]; Homo sapiens, HCT-116, GSK3b inhibitor pretreated, read-out: GSK3b inh pretreated_Viability ATP HCT116): 10.5 µM; IC50 (DLD-1; Homo sapiens, DLD-1, basal, read-out: Basal_Viability ATP DLD-1): > 20 µM; EC50 (INS-1E cells; Rattus norvegicus; IC50 / EC50; INS-1E; read-out: Insulin Secretion): > 10 µM; EC50 ([2]; Mus musculus, C2C12, IC50 / EC50; C2C12 beta-catenin translocation; read-out: Wnt Pathway): 4.98 µM; IC50 (HCT116; Homo sapiens, HCT-116, basal, read-out: Basal_Viability ATP HCT116): > 20 µM; IC50 ([3]; Homo sapiens, IC50 / EC50; endothelial tube area, ADSC/ECFC co-culture; read-out: Anti-Angiogenesis): 4.49 µM; EC50 (NCI-H716 cells; Homo sapiens; IC50 / EC50; NCI-H716; read-out: GLP 1 Secretion): > 10 µM; IC50 (SW480; Homo sapiens, SW480, basal, read-out: Basal_Viability ATP SW480): 10.6 µM
[O-][n+]1ccccc1SSc1cccc[n+]1[O-] [Dipyrithione magnesium sulfate] |  |  |  | > 20 | > 20 |  | > 20 |  |  |  | > 20 |  |  | > 20 |  |  |  | 0.131 |  |  | EC50 (HeLa cells): > 10 µM; IC50 ([1]; read-out: GSK3b inh pretreated_Viability ATP HCT116): > 20 µM; IC50 (DLD-1; read-out: Basal_Viability ATP DLD-1): > 20 µM; EC50 (INS-1E cells; read-out: Insulin Secretion): > 10 µM; IC50 (HCT116; read-out: Basal_Viability ATP HCT116): 20 µM; IC50 ([3]; read-out: Anti-Angiogenesis): 0.719 µM; EC50 (NCI-H716 cells; read-out: GLP 1 Secretion): > 10 µM; IC50 (SW480; read-out: Basal_Viability ATP SW480): > 20 µM
CCCCCCCCCCCCCCCCCCNC(=O)OC1CCN(C(=O)OC[C@H](COC(=O)N(Cc2cccc[n+]2CC)C(=O)c2ccccc2OC)OC)CC1 [E-5880] | > 10 | 4.42 | 3.28 | > 20 | > 20 | > 20 | > 20 | > 10 | 4.11 | 1.5 | > 20 | 9.52 | 0.543 | > 20 |  |  |  |  |  |  | 
CCC1=C[C@@H]2CN(C1)Cc1c([nH]c3ccccc13)[C@@](C(=O)OC)(c1cc3c(cc1OC)N(C)[C@H]1[C@@](O)(C(=O)OC)[C@H](OC(C)=O)[C@]4(CC)C=CCN5CC[C@]31[C@@H]54)C2 [vinorelbine] |  |  |  | > 20 | > 20 |  | > 20 |  |  |  | > 20 |  |  | > 20 |  |  |  |  |  |  | IC50 [1, 19]: 0.0667 µM; IC50 (DLD-1; [20]): 0.214 µM; EC50 (INS-1E cells; [21]): > 10 µM; EC50 [2, 22]: 0.0089 µM; IC50 (HCT116; [23]): 0.0964 µM; IC50 [3, 24]: 0.0055 µM; EC50 (NCI-H716 cells; [25]): > 10 µM; IC50 (SW480; [26]): 0.342 µM
